Assays:
B16 [1] = assay: Evaluated for anticancer activity in survival tumor system B16 melanocarcinoma at a dose of 50 mg/kg, value was reported as weight difference; format: functional, Mus musculus
P388 [2] = assay: Evaluated for anticancer activity in survival tumor system P388 lymphocytic leukemia at dose 100 mg/kg; format: functional, Mus musculus
[3] = test system: Lewis lung carcinoma cell line; assay: Evaluated for anticancer activity in survival tumor system Lewis lung (LL) carcinoma at dose 12.5 mg/kg; format: functional, Mus musculus
[4] = test system: Lewis lung carcinoma cell line; assay: Evaluated for anticancer activity in survival tumor system Lewis lung (LL) carcinoma at dose 50 mg/kg; format: functional, Mus musculus
P388 [5] = assay: Evaluated for anticancer activity in survival tumor system P388 lymphocytic leukemia at a dose of 12.5 mg/kg, value was reported as weight difference; format: functional, Mus musculus
[6] = test system: Lewis lung carcinoma cell line; assay: Evaluated for anticancer activity in survival tumor system Lewis lung (LL) carcinoma at dose 100 mg/kg; format: functional, Mus musculus
[7] = test system: Lewis lung carcinoma cell line; assay: Evaluated for anticancer activity in survival tumor system Lewis lung (LL) carcinoma at dose 25 mg/kg; format: functional, Mus musculus
[8] = Evaluated for anticancer activity in tumor inhibition system colon 38 at a dose of 50 mg/kg, value was reported as weight difference; format: functional, Mus musculus
P388 [9] = assay: Evaluated for anticancer activity in survival tumor system P388 lymphocytic leukemia at a dose of 100 mg/kg, value was reported as weight difference; format: functional, Mus musculus
[10] = test system: Lewis lung carcinoma cell line; assay: Evaluated for anticancer activity in survival tumor system Lewis lung (LL) carcinoma at a dose of 50 mg/kg;Number of Tested survived/number of control survived (10/10); format: functional, Mus musculus
B16 [11] = assay: Evaluated for anticancer activity in survival tumor system B16 melanocarcinoma at a dose of 200 mg/kg; Number of Tested survived/number of control survived (4/10); format: functional, Mus musculus
[12] = Evaluated for anticancer activity in tumor inhibition system colon 38 tumors at a dose of 800 mg/kg; Number of Tested survived/number of control survived (0/10); format: functional, Mus musculus
[13] = Evaluated for anticancer activity in tumor inhibition system colon 38 tumor at dose 400 mg/kg; format: functional, Mus musculus
L1210 [14] = assay: Evaluated for anticancer activity in survival tumor system L1210 lymphoid leukemia at a dose of 12.5 mg/kg, value was reported as weight difference; format: functional, Mus musculus
L1210 [15] = assay: Evaluated for anticancer activity in survival tumor system L1210 lymphoid leukemia at dose 3.12 mg/kg; format: functional, Mus musculus
[16] = Evaluated for anticancer activity in tumor inhibition system CD8F1 mammary tumors at a dose of 125 mg/kg; Number of Tested survived/number of control survived (10/10); format: functional, Mus musculus
B16 [17] = assay: Evaluated for anticancer activity in survival tumor system B16 melanocarcinoma at dose 50 mg/kg; format: functional, Mus musculus
L1210 [18] = assay: Evaluated for anticancer activity in survival tumor system L1210 lymphoid leukemia at a dose of 3.125 mg/kg; Number of Tested survived/number of control survived (6/6); format: functional, Mus musculus
MX1 [19] = assay: Evaluated for anticancer activity in tumor inhibition system MX-1 breast xenograph at dose 150 mg/kg; format: functional, Homo sapiens
[20] = Evaluated for anticancer activity in tumor inhibition system colon 38 tumor at dose 200 mg/kg; format: functional, Mus musculus
MX1 [21] = assay: Evaluated for anticancer activity in tumor inhibition system MX-1 breast xenograph at dose 75 mg/kg; format: functional, Homo sapiens
B16 [22] = assay: Evaluated for anticancer activity in survival tumor system B16 melanocarcinoma at a dose of 200 mg/kg, value was reported as weight difference; format: functional, Mus musculus
[23] = test system: Lewis lung carcinoma cell line; assay: Evaluated for anticancer activity in survival tumor system Lewis lung (LL) carcinoma at a dose of 50 mg/kg, value was reported as weight difference; format: functional, Mus musculus
B16 [24] = assay: Evaluated for anticancer activity in survival tumor system B16 melanocarcinoma at dose 12.5 mg/kg; format: functional, Mus musculus
[25] = Evaluated for anticancer activity in tumor inhibition system CD8F1 mammary tumors at a dose of 250 mg/kg; number of Tested survived/number of control survived; format: functional, Mus musculus
B16 [26] = assay: Evaluated for anticancer activity in survival tumor system B16 melanocarcinoma at a dose of 12.5 mg/kg; Number of Tested survived/number of control survived (9/10); format: functional, Mus musculus
[27] = Evaluated for anticancer activity in tumor inhibition system CD8F1 mammary tumors at a dose of 500 mg/kg; Number of Tested survived/number of control survived (0/10); format: functional, Mus musculus
L1210 [28] = assay: Evaluated for anticancer activity in survival tumor system L1210 lymphoid leukemia at a dose of 50 mg/kg, value was reported as weight difference; format: functional, Mus musculus
L1210 [29] = assay: Evaluated for anticancer activity in survival tumor system L1210 lymphoid leukemia at dose 50 mg/kg; format: functional, Mus musculus
P388 [30] = assay: Evaluated for anticancer activity in survival tumor system P388 lymphocytic leukemia at dose 12.5 mg/kg; format: functional, Mus musculus
B16 [31] = assay: Evaluated for anticancer activity in survival tumor system B16 melanocarcinoma at a dose of 6.25 mg/kg, value was reported as weight difference; format: functional, Mus musculus
[32] = test system: Lewis lung carcinoma cell line; assay: Evaluated for anticancer activity in survival tumor system Lewis lung (LL) carcinoma at a dose of 12.5 mg/kg; Number of Tested survived/number of control survived (10/10); format: functional, Mus musculus
L1210 [33] = assay: Evaluated for anticancer activity in survival tumor system L1210 lymphoid leukemia at a dose of 6.25 mg/kg, value was reported as weight difference; format: functional, Mus musculus
L1210 [34] = assay: Evaluated for anticancer activity in survival tumor system L1210 lymphoid leukemia at a dose of 3.125 mg/kg, value was reported as weight difference; format: functional, Mus musculus
B16 [35] = assay: Evaluated for anticancer activity in survival tumor system B16 melanocarcinoma at dose 100 mg/kg; format: functional, Mus musculus
[36] = Evaluated for anticancer activity in tumor inhibition system colon 38 tumors at a dose of 200 mg/kg; Number of Tested survived/number of control survived (10/10); format: functional, Mus musculus
[37] = test system: Lewis lung carcinoma cell line; assay: Evaluated for anticancer activity in survival tumor system Lewis lung (LL) carcinoma at a dose of 100 mg/kg, value was reported as weight difference; format: functional, Mus musculus
L1210 [38] = assay: Evaluated for anticancer activity in survival tumor system L1210 lymphoid leukemia at a dose of 6.25 mg/kg; Number of Tested survived/number of control survived (6/6); format: functional, Mus musculus
[39] = Evaluated for anticancer activity in tumor inhibition system CD8F mammary tumor at a dose of 62 mg/kg, value was reported as weight difference; format: functional, Mus musculus
MX1 [40] = assay: Evaluated for anticancer activity in tumor inhibition system MX-1 breast xenograph at a dose of 75 mg/kg; Number of Tested survived/number of control survived (4/6); format: functional, Homo sapiens
[41] = test system: Lewis lung carcinoma cell line; assay: Evaluated for anticancer activity in survival tumor system Lewis lung (LL) carcinoma at a dose of 25 mg/kg, value was reported as weight difference; format: functional, Mus musculus
KB = assay: Evaluated in vitro for cytotoxicity against KB cell culture system; format: functional; conditions: Homo sapiens, read-out: ED50 (the source's name)
L1210 [42] = assay: Evaluated for anticancer activity in survival tumor system L1210 lymphoid leukemia at dose 25 mg/kg; conditions: Mus musculus
[43] = Evaluated for anticancer activity in tumor inhibition system colon 38 at a dose of 100 mg/kg, value was reported as weight difference; format: functional, Mus musculus
L1210 [44] = assay: Evaluated for anticancer activity in survival tumor system L1210 lymphoid leukemia at dose 100 mg/kg; format: functional, Mus musculus
MX1 [45] = assay: Evaluated for anticancer activity in tumor inhibition system MX-1 breast xenograph at a dose of 300 mg/kg; Number of Tested survived/number of control survived (1/6); format: functional, Homo sapiens

SMILES: COc1cc2c[n+](C)c3c(c2cc1OC)Cc1cc2c(cc1-3)OCO2.[Cl-]
- Weight change (B16 [1]): -4.9
- T/C (P388 [2]): 168%
- T/C [3]: 97%
- T/C [4]: 119%
- Weight change (P388 [5]): -1.4
- T/C [6]: 51%
- T/C [7]: 114%
- Weight change [8]: -0.8
- Weight change (P388 [9]): -5.8
- Survival [10]: 10
- Survival (B16 [11]): 4
- Survival [12]: 0
- T/C [13]: 85%
- Weight change (L1210 [14]): -2.6
- T/C (L1210 [15]): 129%
- Survival [16]: 10
- T/C (B16 [17]): 147%
- Survival (L1210 [18]): 6
- T/C (MX1 [19]): 35%
- T/C [20]: 97%
- T/C (MX1 [21]): 102%
- Weight change (B16 [22]): -4.2
- Weight change [23]: -2.6
- T/C (B16 [24]): 131%
- Survival [25]: 2
- Survival (B16 [26]): 9
- Survival [27]: 0
- Weight change (L1210 [28]): -5.8
- T/C (L1210 [29]): 198%
- T/C (P388 [30]): 134%
- Weight change (B16 [31]): -0.5
- Survival [32]: 10
- Weight change (L1210 [33]): -3.2
- Weight change (L1210 [34]): -1.9
- T/C (B16 [35]): 120%
- Survival [36]: 10
- Weight change [37]: -3.8
- Survival (L1210 [38]): 6
- Weight change [39]: -1
- Survival (MX1 [40]): 4
- Weight change [41]: -2.4
- EC50 (KB): 0.038 µg/mL
- T/C (L1210 [42]): 165%
- Weight change [43]: -1.9
- T/C (L1210 [44]): 95%
- Survival (MX1 [45]): 1
